SMILES strings stand for the structures. Values after ≈ are worked out from the molar mass of the structure shown.

Test systems include Fusarium oxysporum; Trichoderma asperellum; Rhizoctonia solani; Ramulariopsis gossypii; Fusarium solani; Candida krusei ATCC 6258; Escherichia coli O157; Vibrio cholerae O1 Inaba; Candida krusei CBS 573.
Common to all, as to assay: ≥ marks a high value that may be exact or a test limit, other limits are often not marked, values filed in µg/mL are converted to µM
The subject of test [1] is Bacillus subtilis ATCC 23857.
Test [2] has as its system Pectobacterium carotovorum.
The subject of test [3] is Bacillus cereus ATCC 14579.
Test [4] concerns Xanthomonas campestris pv. citri.
Test [5] has as its system Cryptococcus neoformans ATCC 28957.
The test system of test [6] is Escherichia coli ATCC 25922.
Test [7] deals with Fusarium oxysporum f.sp. vasinfectum.
Test [8] has as its system Candida albicans ATCC 90028.
For test [9], the system named is Pseudomonas syringae pv. tabaci.
For test [10], the system named is Staphylococcus aureus ATCC 25923.
The test system of test [11] is Edwardsiella tarda FP4130.
Test [12] concerns Streptococcus iniae FP5228.
Test [13] concerns Vibrio ordalii KCCM 41669.
Test [14] has as its system Vibrio harveyi ATCC 14126.
The test system of test [15] is Vibrio alginolyticus KCCM 2928.
In test [16] the test system is Aeromonas salmonicida RFAS1.
In test [17] the test system is Staphylococcus epidermidis ATCC 12228.
For test [18], the system named is Staphylococcus aureus ATCC 29213.
Test [19] concerns Enterococcus faecalis ATCC 4028.
Test [20] has as its system Enterobacter cloacae ATCC 13047.
Test [21] relates to Pseudomonas aeruginosa ATCC 27853.
Test [22] concerns Candida glabrata ATCC 90030.
Test [23] deals with Staphylococcus aureus ATCC 43300.
The subject of test [24] is Enterococcus faecalis ATCC 29212.
The subject of test [25] is Salmonella enterica subsp. enterica serovar Typhimurium ATCC 13311.
Test [26] has as its system Bacillus cereus ATCC 11778.
Test [27] has as its system Shigella sonnei ATCC 11060.
The subject of test [28] is Candida albicans ATCC 10231.
The subject of test [29] is Saccharomyces cerevisiae SZMC 0644.
Test [30] deals with Candida parapsilosis CBS 604.
In test [31] the test system is Escherichia coli K-12 594.
Test [32] relates to Staphylococcus aureus ATCC 6538P.
Test [33] has as its system Staphylococcus aureus SR1550.
For test [34], the system named is Acinetobacter baumannii ATCC 19606.
Test [35] concerns Pseudomonas aeruginosa ATCC 47085.
The test system of test [36] is Klebsiella pneumoniae ATCC 13883.

In general, MIC refers to the least concentration at which growth counts as inhibited. Read a high MIC as a need for much substance. For the molecule `CC[C@H](C)[C@H](NC(=O)[C@H](Cc1cnc[nH]1)NC(=O)CNC(=O)[C@H](Cc1ccccc1)NC(=O)[C@@H](N)Cc1ccccc1)C(=O)N[C@@H](Cc1c[nH]c2ccccc12)C(=O)N[C@@H](Cc1cnc[nH]1)C(=O)NCC(=O)N[C@@H](C)C(=O)N[C@@H](CCCN=C(N)N)C(=O)N[C@H](C(=O)N[C@@H](CC(C)C)C(=O)N[C@@H](Cc1ccccc1)C(=O)N[C@@H](CCCN=C(N)N)C(=O)N[C@@H](CC(=O)O)C(=O)N[C@H](C(=O)N[C@@H](Cc1ccccc1)C(=O)N[C@@H](C)C(N)=O)C(C)C)[C@@H](C)O` [FFGHIWHGARTLFRDVFA], the MIC in test [1] was 3.33 µM (≈ 7.25 µg/mL); in [2], ≥ 32 µM; against Fusarium oxysporum it was 16 µM (≈ 34.8 µg/mL); with Trichoderma asperellum, 8 µM (≈ 17.4 µg/mL); with Rhizoctonia solani it was ≥ 32 µM; in test [3], ≥ 64 µM. In addition, the MIC in test [4] is ≥ 32 µM; in test [5] it was ≥ 32 µM; in test [6] it was 8 µM (≈ 17.4 µg/mL); in [7], 13.3 µM (≈ 29 µg/mL); in test [8], ≥ 32 µM; with Ramulariopsis gossypii, 16 µM (≈ 34.8 µg/mL). Further, the values for the MIC (in the test on Fusarium solani; in test [9]; in [10]) were 8 µM (≈ 17.4 µg/mL), 4 µM (≈ 8.71 µg/mL) and 8 µM (≈ 17.4 µg/mL), respectively.

Turning to `CC[C@H](C)[C@H](NC(=O)[C@H](CC(N)=O)NC(=O)[C@H](CCCCN)NC(=O)[C@H](Cc1c[nH]c2ccccc12)NC(=O)CNC(=O)[C@H](CCC(=O)O)NC(=O)[C@H](CCCCN)NC(=O)[C@H](CC(C)C)NC(=O)[C@H](CCC(=O)O)NC(=O)[C@H](CCC(N)=O)NC(=O)[C@H](Cc1ccccc1)NC(=O)[C@@H](N)Cc1ccccc1)C(=O)N[C@@H](CCCCN)C(=O)N[C@@H](CCCCN)C(=O)N[C@@H](C)C(=O)O` [FFQELKEGWKNIKKA], the minimum inhibitory concentration (MIC) is ≥ 62.5 µM in test [11]; 15.6 µM (≈ 29.1 µg/mL) in [12]; 2 µM (≈ 3.73 µg/mL) in test [13]; ≥ 125 µM in [14]; 7.8 µM (≈ 14.6 µg/mL) in test [15]; 7.8 µM (≈ 14.6 µg/mL) in test [16].

As for `CC[C@H](C)[C@H](NC(=O)[C@H](CC(C)C)NC(=O)CNC(=O)[C@H](CCCCN)NC(=O)[C@@H](NC(=O)[C@H](CC(C)C)NC(=O)[C@H](CCCCN)NC(=O)[C@@H]1CCCN1C(=O)[C@@H](NC(=O)[C@H](CC(C)C)NC(=O)[C@H](CO)NC(=O)[C@H](Cc1ccccc1)NC(=O)[C@@H](N)Cc1ccccc1)[C@@H](C)CC)C(C)C)C(=O)N[C@@H](CO)C(=O)N[C@@H](C)C(=O)N[C@@H](Cc1ccccc1)C(=O)N[C@@H](CCCCN)C(N)=O` [FFSLIPKLVKGLISAFK], the MIC in test [17] was 1.17 µM (≈ 2.23 µg/mL); in test [18], 2.34 µM (≈ 4.46 µg/mL); in [19] it was 1.17 µM (≈ 2.23 µg/mL); in test [20] it was 18.8 µM (≈ 35.8 µg/mL); against Candida krusei ATCC 6258 it was ≥ 37.5 µM; in [6], 4.69 µM (≈ 8.95 µg/mL). Besides, the MIC turned out to be 9.38 µM (≈ 17.9 µg/mL) in test [21], 9.38 µM (≈ 17.9 µg/mL) in test [8] and 18.8 µM (≈ 35.8 µg/mL) in test [22].

For the molecule `CC(C)C[C@H](NC(=O)CNC(=O)[C@H](CCCN=C(N)N)NC(=O)[C@H](CS)NC(=O)[C@H](CC(=O)O)NC(=O)CNC(=O)CNC(=O)[C@H](CO)NC(=O)[C@@H](N)Cc1ccccc1)C(=O)N[C@@H](CCCN=C(N)N)C(=O)N[C@@H](CCCN=C(N)N)C(=O)N[C@@H](CCCN=C(N)N)C(=O)N[C@@H](CS)C(=O)N[C@@H](Cc1ccccc1)C(=O)N[C@@H](CS)C(=O)N[C@H](C(=O)N[C@@H](CCCN=C(N)N)C(N)=O)[C@@H](C)O` [FSGGDCRGLRRRCFCTR], the MIC in test [23] is > 251 µM; against Escherichia coli O157, ≥ 229 µM; in test [17], 15.7 µM (≈ 31.2 µg/mL); against Vibrio cholerae O1 Inaba, ≥ 126 µM; in test [24], 251 µM (≈ 500 µg/mL); in [25], 31.4 µM (≈ 62.5 µg/mL). Besides, the MIC was ≥ 251 µM in test [26]; > 251 µM in test [6]; > 251 µM in test [21]; ≥ 126 µM in test [27]; > 251 µM in [10].

For `NCCCC[C@@H]1NC(=O)[C@H](CCCCN)NC(=O)[C@H](Cc2cnc[nH]2)NC(=O)[C@H](CCCCN)NC(=O)[C@@H](NC(=O)[C@H](CC(N)=O)NC(=O)[C@@H](N)CC(N)=O)CSSC[C@@H](C(=O)O)NC(=O)CNC(=O)[C@H](CO)NC(=O)CNC1=O` [NNCKHKKGSGC], the MIC was 42.5 µM (≈ 49.9 µg/mL) in [28], ≥ 42.5 µM in test [29], ≥ 42.5 µM in [30] and ≥ 42.5 µM in the test on Candida krusei CBS 573.

With `CC(C)C[C@H](NC(=O)[C@H](CCCN=C(N)N)NC(=O)[C@H](CC(C)C)NC(=O)[C@H](CC(C)C)NC(=O)[C@H](CC(C)C)NC(=O)[C@H](CC(C)C)NC(=O)[C@H](CCCCN)NC(=O)[C@H](CC(C)C)NC(=O)[C@@H](N)CCCN=C(N)N)C(=O)N[C@@H](CCCCN)C(N)=O` [RLKLLLLRLK], the MIC is 15.8 µM (≈ 20 µg/mL) in [31], 1.58 µM (≈ 2 µg/mL) in test [32] and 27.7 µM (≈ 35 µg/mL) in [33].

For the molecule `CC(=O)N[C@@H](CCCN=C(N)N)C(=O)N1CCC[C@H]1C(=O)N[C@@H](CC(=O)O)C(=O)N[C@@H](CCCCN)C(=O)N1CCC[C@H]1C(=O)N[C@@H](CCCN=C(N)N)C(=O)N1CCC[C@H]1C(=O)N[C@@H](Cc1ccc(O)cc1)C(=O)N[C@@H](CC(C)C)C(=O)N1CCC[C@H]1C(=O)N[C@@H](CCCN=C(N)N)C(=O)N1CCC[C@H]1C(=O)N[C@@H](CCCN=C(N)N)C(=O)N1CCC[C@H]1C(=O)N1CCC[C@H]1C(=O)N[C@@H](CCCN=C(N)N)C(=O)N1CCC[C@H]1C(=O)N[C@H](C(=O)N[C@@H](CCCN=C(N)N)C(N)=O)C(C)C` [RPDKPRPYLPRPRPPRPVR], the MIC was > 100 µM in test [34], ≥ 100 µM in test [35], 2 µM (≈ 4.78 µg/mL) in test [36] and 2.6 µM (≈ 6.22 µg/mL) in test [6].

These data come from DBAASP.
